# Measurements from patent US20250195513A1, “DEGRADATION OF IRAK4 BY CONJUGATION OF IRAK4 INHIBITORS WITH E3 LIGASE LIGAND AND METHODS OF USE” (BeiGene, Ltd., priority 2022, published 2025).
# Where two headings read alike, the source gives them in different places.
# Biological target: T1, IRAK4 (Homo sapiens, UniProt Q9NWZ3)
# T1 construct: endogenous in cells; host or cells: Karpas299
# T1 sequence (Q9NWZ3 1-460): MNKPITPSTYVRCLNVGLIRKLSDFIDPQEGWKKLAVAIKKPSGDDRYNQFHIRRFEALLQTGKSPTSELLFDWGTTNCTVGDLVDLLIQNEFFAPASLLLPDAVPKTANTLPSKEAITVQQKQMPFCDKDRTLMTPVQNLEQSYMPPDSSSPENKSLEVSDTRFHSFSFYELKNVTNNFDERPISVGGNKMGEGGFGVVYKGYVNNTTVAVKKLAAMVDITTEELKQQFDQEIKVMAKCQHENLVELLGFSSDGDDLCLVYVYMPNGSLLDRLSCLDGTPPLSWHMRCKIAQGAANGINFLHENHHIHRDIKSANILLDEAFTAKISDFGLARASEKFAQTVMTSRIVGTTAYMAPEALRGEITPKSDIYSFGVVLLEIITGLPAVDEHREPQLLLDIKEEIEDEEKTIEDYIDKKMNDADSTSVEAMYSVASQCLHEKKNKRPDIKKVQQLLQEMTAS
# Assay: IRAK4 Degradation Assay (Karpas299, HTRF/TR-FRET)
# Format: cell-based
# Details: Karpas-299 cells; for Dmax: maximum percentage of degradation
# Protocol: IRAK4 degradation was measured using a TR-FRET-based method (Degorce, François, et al. Current chemical genomics. 2009, 3: 22). Karpas299 maintained in RPMI 1640 medium (Thermo Scientific) supplemented with 20% fetal bovine serum (FBS, Thermo Scientific), 100 units/mL penicillin and 0.1 mg/mL streptomycin (Thermo Scientific) were seeded into 96-well plates at the density of 0.2 million cells per well and then treated with a series dilution of compounds. After 24 hours or 5 hours treatment, cells were pelleted via centrifugation and 40 μL lysis buffer (Cisbio) was added to each well after removal of the supernatant. Plates were then incubated at room temperature with shaking for 30 minutes. A total of 16 μL of cell lysates from each well of a 96-well plate was transferred to a 384-well white assay plate. IRAK4 level was quantitated using the HTRF kit as described by the manufacturer manual (Cisbio). FRET signals were measured using a PHERAstar FSX reader (BMG Labtech).
# After treatment, add HTRF lysis buffer to each well; seal the plate and incubate 1 hour at room temperature on a plate shaker; Once the cells are lysed, 16 μL of cell lysate are transferred to a PE 384-well HTRF detection plate; 4 μL of pre-mixed HTRF antibodies are added to each well; Cover the plate with a plate sealer, spin 1000 rpm for 1 min, Incubate overnight at room temperature; Read on BMG PheraStar with HTRF protocol (337 nm-665 nm-620 nm).
# The inhibition (degradation) percentage of the compound was calculated by the following equation: […]
# The IC50 (DC50) value of a compound can be obtained by fitting the following equation
# Wherein, X and Y are known values, and IC50, Hillslope, Top and Bottom are the parameters obtained by fitting with software. Y is the inhibition percentage (calculated from the equation), X is the concentration of the compound; IC50 is the concentration of the compound when the […] is reached. The smaller the IC50 value is, the stronger the inhibitory ability of the compound is. Vice versa, the higher the IC50 value is, the weaker the ability the inhibitory ability of the compound is; Hillslope represents the slope of the fitted curve, generally around 1 *; Bottom represents the minimum value of the curve obtained by data fitting, which is generally 0%±20%; Top represents the maximum value of the curve obtained by data fitting, which is generally 100%±20%. The experimental data were fitted by calculating and analyzing with Dotmatics data analysis software.
# [1] = 5 h treatment, read-out: IRAK4 in Karpas-299 (5 h) Dmax (%)
# [2] = 5 h treatment, read-out: IRAK4 in Karpas-299 (5 h) DC50
# [3] = 24 h treatment, read-out: IRAK4 in Karpas-299 (24 h) Dmax (%)
# [4] = 24 h treatment, read-out: IRAK4 in Karpas-299 (24 h) DC50
Compound,Dmax [1],DC50 [2],Dmax [3],DC50 [4]
"CC(C)(O)c1cc2nc(C3CCN(C4CN(C(=O)[C@@H]5CCN(c6cc(F)c([C@H]7CCC(=O)NC7=O)c(F)c6)C5)C4)CC3)cn2cc1NC(=O)c1cccc(C(F)(F)F)n1 [Example 50, N-(2-(1-(1-((R)-1-(4-((R)-2,6-dioxopiperidin-3-yl)-3,5-difluorophenyl)pyrrolidine-3-carbonyl)azetidin-3-yl)piperidin-4-yl)-7-(2-hydroxypropan-2-yl)imidazo[1,2-a]pyridin-6-yl)-6-(trifluoromethyl)picolinamide]",78%,2.2 nM,94%,1.5 nM
"O=C1CC[C@H](c2c(F)cc(N3CC(CN4CCN([C@H]5CC[C@H](n6cc(NC(=O)c7coc(-c8ccnc(NCC(F)(F)F)c8)n7)c(C(F)F)n6)CC5)CC4)C3)cc2F)C(=O)N1 [Example 19, N-(3-(difluoromethyl)-1-((1r,4r)-4-(4-((1-(4-((R)-2,6-dioxopiperidin-3-yl)-3,5-difluorophenyl)azetidin-3-yl)methyl)piperazin-1-yl)cyclohexyl)-1H-pyrazol-4-yl)-2-(2-((2,2,2-trifluoroethyl)amino)pyridin-4-yl)oxazole-4-carboxamide]",,,95%,1 nM
"NC(=O)c1nn([C@H]2CC[C@H](N3CCN(C(=O)C4CN(c5cc(F)c([C@H]6CCC(=O)NC6=O)c(F)c5)C4)CC3)CC2)cc1NC(=O)c1coc(-c2ccnc(NCC(F)(F)F)c2)n1 [Example 11, N-(3-carbamoyl-1-((1r,4r)-4-(4-(1-(4-((R)-2,6-dioxopiperidin-3-yl)-3,5-difluorophenyl)azetidine-3-carbonyl)piperazin-1-yl)cyclohexyl)-1H-pyrazol-4-yl)-2-(2-((2,2,2-trifluoroethyl)amino)pyridin-4-yl)oxazole-4-carboxamide]",94%,2.4 nM,97%,1.6 nM
"COc1cc2nn([C@H]3CC[C@H](N4CCN(CCc5cc(F)c([C@H]6CCC(=O)NC6=O)c(F)c5)CC4)CC3)cc2cc1NC(=O)c1cccc(C(F)(F)F)n1 [Example 120, N-(2-((1R,4r)-4-(4-(4-((R)-2,6-dioxopiperidin-3-yl)-3,5-difluorophenethyl)piperazin-1-yl)cyclohexyl)-6-methoxy-2H-indazol-5-yl)-6-(trifluoromethyl)picolinamide]",,,99%,4.2 nM
"CC1(C)CN(c2cc(F)c([C@H]3CCC(=O)NC3=O)c(F)c2)C[C@@H]1C(=O)N1CCN([C@H]2CC[C@H](n3cc(NC(=O)c4coc(-c5ccnc(NCC(F)(F)F)c5)n4)c(C(F)F)n3)CC2)CC1 [Example 18, N-(3-(difluoromethyl)-1-((1R,4r)-4-(4-((R)-1-(4-((R)-2,6-dioxopiperidin-3-yl)-3,5-difluorophenyl)-4,4-dimethylpyrrolidine-3-carbonyl)piperazin-1-yl)cyclohexyl)-1H-pyrazol-4-yl)-2-(2-((2,2,2-trifluoroethyl)amino)pyridin-4-yl)oxazole-4-carboxamide]",95%,100 nM,97%,9.7 nM
"COc1cc2nn(C3CCN(C4CCN(C(=O)C5CN(c6ccc(N7CCC(=O)NC7=O)cc6)C5)CC4)CC3)cc2cc1NC(=O)c1cccc(C(F)(F)F)n1 [Example 44, N-(2-(1′-(1-(4-(2,4-dioxotetrahydropyrimidin-1(2H)-yl)phenyl)azetidine-3-carbonyl)-[1,4′-bipiperidin]-4-yl)-6-methoxy-2H-indazol-5-yl)-6-(trifluoromethyl)picolinamide]",,,99%,9.3 nM
"O=C1CC[C@H](c2c(F)cc(N3CC(C(=O)N4CCN([C@H]5CC[C@H](n6cc7cc(NC(=O)c8cccc(C(F)(F)F)n8)c(OC8COC8)nc7n6)CC5)CC4)C3)cc2F)C(=O)N1 [Example 98, N-(2-((1r,4r)-4-(4-(1-(4-((R)-2,6-dioxopiperidin-3-yl)-3,5-difluorophenyl)azetidine-3-carbonyl)piperazin-1-yl)cyclohexyl)-6-(oxetan-3-yloxy)-2H-pyrazolo[3,4-b]pyridin-5-yl)-6-(trifluoromethyl)picolinamide]",,,99%,0.6 nM

# Other lines, results leading:
Dmax [1],DC50 [2],Dmax [3],DC50 [4],Compound
,,97%,0.3 nM,"CC(C)(O)c1cc2nn(C34CCC(N5CCN(C(=O)C6CN(c7cc(F)c([C@H]8CCC(=O)NC8=O)c(F)c7)C6)CC5)(CC3)CC4)cc2cc1NC(=O)c1ccc2cc(C#N)cnn12 [Example 149, (R)-3-cyano-N-(2-(4-(4-(1-(4-(2,6-dioxopiperidin-3-yl)-3,5-difluorophenyl)azetidine-3-carbonyl)piperazin-1-yl)bicyclo[2.2.2]octan-1-yl)-6-(2-hydroxypropan-2-yl)-2H-indazol-5-yl)pyrrolo[1,2-b]pyridazine-7-carboxamide]"
,,97%,0.2 nM,"CC(C)(O)c1cc2nn([C@H]3CC[C@H](CN4CCN(C(=O)C5CN(c6cc(F)c([C@H]7CCC(=O)NC7=O)c(F)c6)C5)CC4)CC3)cc2cc1NC(=O)c1csc(-c2cn[nH]c2)n1 [Example 434, N-(2-((1r,4r)-4-((4-(1-(4-((R)-2,6-dioxopiperidin-3-yl)-3,5-difluorophenyl)azetidine-3-carbonyl)piperazin-1-yl)methyl)cyclohexyl)-6-(2-hydroxypropan-2-yl)-2H-indazol-5-yl)-2-(1H-pyrazol-4-yl)thiazole-4-carboxamide]"
,,5%,> 10000 nM,"CC1(C)OC(c2ccc3cc(C#N)cnn23)=Nc2cc3cn(C4CCN(C5CCN(C(=O)[C@@H]6CCN(c7cc(F)c([C@H]8CCC(=O)NC8=O)c(F)c7)C6)CC5)CC4)nc3cc21 [Example 412, 7-(2-(1′-((R)-1-(4-((R)-2,6-dioxopiperidin-3-yl)-3,5-difluorophenyl)pyrrolidine-3-carbonyl)-[1,4′-bipiperidin]-4-yl)-8,8-dimethyl-2,8-dihydro-[1,3]oxazino[4,5-f]indazol-6-yl)pyrrolo[1,2-b]pyridazine-3-carbonitrile]"
,,95%,10 nM,"COc1cc2nn([C@H]3CC[C@H](CN4CCN(C(=O)[C@@H]5CCN(c6cc(F)c(N7CCC(=O)NC7=O)c(F)c6)C5)CC4)CC3)cc2cc1NC(=O)c1cccn(C2CC2)c1=O [Example 171, 1-cyclopropyl-N-(2-((1R,4r)-4-((4-((R)-1-(4-(2,4-dioxotetrahydropyrimidin-1(2H)-yl)-3,5-difluorophenyl)pyrrolidine-3-carbonyl)piperazin-1-yl)methyl)cyclohexyl)-6-methoxy-2H-indazol-5-yl)-2-oxo-1,2-dihydropyridine-3-carboxamide]"
90%,4 nM,99%,0.4 nM,"CC(C)(O)c1cc2nn(C3CCN(C4CCN(C(=O)C5CN(c6cc(F)c([C@H]7CCC(=O)NC7=O)c(F)c6)C5)CC4)CC3)cc2cc1NC(=O)c1cccc(C(F)(F)F)n1 [Example 160, (R)—N-(2-(1′-(1-(4-(2,6-dioxopiperidin-3-yl)-3,5-difluorophenyl)azetidine-3-carbonyl)-[1,4′-bipiperidin]-4-yl)-6-(2-hydroxypropan-2-yl)-2H-indazol-5-yl)-6-(trifluoromethyl)picolinamide]"
,,98%,0.5 nM,O=C1CC[C@H](c2c(F)cc(N3CC(C(=O)N4CCN([C@H]5CC[C@H](n6cc7cc(NC(=O)c8cccc(C(F)(F)F)n8)c(C(=O)NC8CC8)cc7n6)CC5)CC4)C3)cc2F)C(=O)N1 [Example 130]
